{
  "source": "paper PMC5519633",
  "about": "“Endolysosomal targeting of a clinical chlorin photosensitiser for light-triggered delivery of nano-sized medicines” (Scientific Reports, 2017)",
  "key": {"[1]": {"details": "in dimethylformamide; cited from earlier work"}, "[2]": {"assay": "Absorption spectra as a function of concentration (test for aggregation)", "type": "physicochemical", "details": "methanolic solution; up to 8 μM; 398 nm for conjugates, 399 nm for chlorin e6", "description": "For the determination of the singlet oxygen quantum yield (ΦΔ), deuterated methanol (CD3OD) was used since singlet oxygen has a relatively long lifetime in deuterated solvents. To confirm that the methanolic solutions of the conjugates and chlorin e6 at the concentrations studied were monomeric, absorption spectra were recorded as a function of concentration. […] The singlet oxygen quantum yields in deuterated methanol were measured using a standard reference compound, Rose Bengal (ΦΔ = 0.76)[43] using matched reference solution absorbances at the laser wavelength of 532 nm. Using standard zero-point intercept analysis of the singlet oxygen decays, the quantum yield of chlorin e6 was calculated as 0.67, which is in good agreement with the literature, as reviewed by Redmond et al.[43]. Morjzisova et al. reported the quantum yields of several chlorins in dimethylformamide and measured a value of 0.63 for chlorin e6, and observed a similar value for another clinical chlorin PDT photosensitiser, mTHPC (0.68) and disulfonated tetraphenyl chlorin (0.66)[44].\nFor the singlet oxygen studies, absorption spectra of the compounds were measured using a Perkin-Elmer Lambda 25 UV/Vis spectrometer (Perkin-Elmer, Beaconsfield, UK) with quartz cuvettes. […]"}, "MC28 cells [3]": {"system": "MC28 cells", "assay": "In vitro PDT phototoxicity, MTT assay", "type": "cell-based, rat", "details": "3.2 µM, 18 h incubation, 5 min illumination, 420 nm, 7 mW cm-2, MTT 48 h after light, three independent experiments"}, "[4]": {"assay": "Singlet oxygen quantum yield by time-resolved 1270 nm phosphorescence in deuterated methanol", "type": "physicochemical", "details": "aerated deuterated methanol (CD3OD); 532 nm laser excitation; absorbance matched to Rose Bengal reference; zero-time intercept analysis; estimated experimental error +/- 0.06", "experimental": "For the singlet oxygen studies, absorption spectra of the compounds were measured using a Perkin-Elmer Lambda 25 UV/Vis spectrometer (Perkin-Elmer, Beaconsfield, UK) with quartz cuvettes. The singlet oxygen phosphorescence at 1270 nm was detected using time-resolved photon counting from aerated solutions in deuterated methanol (CD3OD) in quartz cuvettes. […] Integrated time-resolved phosphorescence traces were analysed using FluoFit software (PicoQuant GmbH, Berlin, Germany) to extract the singlet oxygen decay lifetime. […]"}, "[5]": {"system": "human pharyngeal FaDu carcinoma cells", "details": "cited from earlier work", "source_text": "The lower uptake of the free chlorin is consistent with its lower PDT efficacy compared to the conjugates, as discussed below. […] Figure 3H and I show sequential images ..."}, "[6]": {"details": "cited from earlier work", "source_text": "The rationale for selecting chlorin e6 as the photosensitiser for this study on PCI was based on its favourable photosensitising properties but also on its poor lysosomal localisation[40] and bioavailability. The cellular uptake and membrane transport of chlorin e6 has been studied in detail in relation to its acid-base properties. The structure of chlorin e6 contains three adjacent carboxylic acid functions with pKa7.9–8.3[47]which are thus only partially ionised at physiological pH leading to poor aqueous solubility, which complicates systemic administration. At lower pH, as is typical for t ..."}, "MC28 cells [7]": {"system": "MC28 cells", "assay": "Cellular uptake and subcellular localisation, confocal microscopy with LysoTracker Green", "type": "cell-based, rat", "details": "same concentration and image intensity scale as the conjugates", "description": "Cells were seeded in small Petri dishes, with a glass cover slip bottom window for use with an inverted microscope (Fluorodish, World Precision Inst. UK), and allowed to attach overnight. Cells were incubated for 24 h with the compounds (2.5 µM). Afterwards, culture medium was removed and replaced with fresh medium containing Lysotracker Green (100 nM) for 30 min before microscope imaging. Cells were washed 2 times with PBS and incubated with drug-free/phenol red-free medium for confocal imaging using an Olympus Laser scanning confocal microscope (FluoView FV1000, 60x magnification, NA 1.20, Olympus UK Ltd, Essex, UK). Fluorescence from the photosensitiser was recorded within the range of 620–720 nm using a 405 nm laser for the excitation. For LysoTracker Green, cells were illuminated at 488 nm and the fluorescence signal was recorded at 500–550 nm. Colocalisation analysis and image processing of the 16-bit images were performed with ImageJ software."}, "[8]": {"details": "standard reference compound in deuterated methanol; cited from earlier work", "source_text": "For the determination of the singlet oxygen quantum yield (ΦΔ), deuterated methanol (CD3OD) was used since singlet oxygen has a relatively long lifetime in deuterated solvents. To confirm that the methanolic solutions of the conjugates and chlorin e6 at the concentrations studied were monomeric, absorption ..."}, "KB cells": {"system": "KB cells", "assay": "In vitro PDT/PCI phototoxicity with saporin, MTT assay", "type": "cell-based, human", "details": "saporin 20 nM, without photosensitiser"}},
  "data": [
    {"molecule": "disulfonated tetraphenyl chlorin", "values": [
      {"measurement": "singlet oxygen quantum yield", "setting": "[1]", "value": 0.66}
    ]},
    {"molecule": "Oc1cccc(-c2c3nc(c(-c4cccc(O)c4)c4ccc([nH]4)c(-c4cccc(O)c4)c4nc(c(-c5cccc(O)c5)c5ccc2[nH]5)CC4)C=C3)c1", "note": "[mTHPC]", "values": [
      {"measurement": "singlet oxygen quantum yield", "setting": "[1]", "value": 0.68}
    ]},
    {"molecule": "C=Cc1c(C)c2cc3nc(c(CC(=O)O)c4[nH]c(cc5nc(cc1[nH]2)C(C)=C5CC)c(C)c4C(=O)O)[C@@H](CCC(=O)O)[C@@H]3C", "note": "[chlorin e6]", "values": [
      {"measurement": "peak absorbance of the Soret band versus concentration (monomeric or aggregated)", "setting": "[2]", "value": "linear"},
      {"measurement": "loss of viability (PDT)", "setting": "MC28 cells [3]", "value": "less than 20%"},
      {"measurement": "singlet oxygen quantum yield (ΦΔ)", "setting": "[4]", "value": 0.67},
      {"measurement": "singlet oxygen quantum yield", "setting": "[1]", "value": 0.63},
      {"measurement": "cellular uptake of free chlorin e6 compared to dendrimer conjugates of chlorin e6", "setting": "[5]", "value": "an order of magnitude lower"},
      {"measurement": "pKa of the three carboxylic acid functions", "setting": "[6]", "value": "7.9–8.3"},
      {"measurement": "cellular uptake, intracellular fluorescence relative to the conjugates", "setting": "MC28 cells [7]", "value": "much lower fluorescence"}
    ]},
    {"molecule": "O=C([O-])c1c(Cl)c(Cl)c(Cl)c(Cl)c1-c1c2cc(I)c(=O)c(I)c-2oc2c(I)c([O-])c(I)cc12.[Na+].[Na+]", "note": "[Rose Bengal]", "values": [
      {"measurement": "singlet oxygen quantum yield (ΦΔ) of reference standard", "setting": "[8]", "value": 0.76}
    ]},
    {"molecule": "saporin", "values": [
      {"measurement": "reduction in viability, saporin alone", "setting": "KB cells", "value": "< 20", "unit": "%"}
    ]}
  ]
}
